Reference: patent publication US7105551B2, “Thiazole derivatives for treating PPAR related disorders” (SmithKline Beecham Corporation, priority 2000, dated 2006)

How the values were obtained:
hPPAR γ = target: T1, hPPAR γ (Homo sapiens, UniProt P37231); experiment: Transient transfection (transactivation) assay in CV-1 cells, hPPAR gamma; format: cell-based; conditions: GAL4 chimeric receptor, SPAP reporter
T1 construct: expressed in transfected cells; host or cells: CV-1 cells
T1 sequence (P37231 238-503 limits assumed): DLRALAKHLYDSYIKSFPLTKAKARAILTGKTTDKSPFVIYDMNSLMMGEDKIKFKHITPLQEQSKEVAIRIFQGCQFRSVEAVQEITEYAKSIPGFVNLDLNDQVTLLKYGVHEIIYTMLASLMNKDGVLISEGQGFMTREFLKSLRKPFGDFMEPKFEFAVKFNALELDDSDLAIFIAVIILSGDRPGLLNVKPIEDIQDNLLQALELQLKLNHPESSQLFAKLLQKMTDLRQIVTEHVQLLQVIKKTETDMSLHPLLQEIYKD
Source text: (§1) Compounds were screened for functional potency in transient transfection assays in CV-1 cells for their ability to activate the PPAR subtypes (transactivation assay). A previously established chimeric receptor system was utilized to allow comparison of the relative transcriptional activity of the receptor subtypes on the same target gene and to prevent endogenous receptor activation from complicating the interpretation of results. […] The ligand binding domains for murine and human PPAR alpha, PPAR gamma, and PPAR delta were each fused to the yeast transcription factor GAL4 DNA binding domain. CV-1 cells were transiently transfected with expression vectors for the respective PPAR chimera along with a reporter construct containing five copies of the GAL4 DNA binding site driving expression of secreted placental alkalin phosphatase (SPAP) and beta-galactosidase. After 16 h, the medium was exchanged to DME medium supplemented with 10% delipidated fetal calf serum and th test compound at the appropriate concentration. After an additional 24 h, cell extracts were prepared and assayed for alkaline phosphatase and β-galactosidase activity. […] The positive control in the hPPAR alpha assays was 2-methyl-2-[4-{[(4-methyl-2-[4-trifluoromethylphenyl]-thiazol-5-yl-carbonyl)amino]methyl}-phenoxy]propionic acid. The positive control for PPAR delta assays was 2-{2-methyl-4-[({4-methyl-2-{trifluoromethyl)phenyl]-1,3-thiazol-5-yl}methyl)sulfanyl]phenoxy}acetic acid.

hPPAR α = target: T2, hPPAR α (Homo sapiens, UniProt Q07869); experiment: Transient transfection (transactivation) assay in CV-1 cells, hPPAR alpha; format: cell-based; conditions: GAL4 chimeric receptor, SPAP reporter
T2 construct: expressed in transfected cells; host or cells: CV-1 cells
T2 sequence (Q07869 239-466 limits assumed): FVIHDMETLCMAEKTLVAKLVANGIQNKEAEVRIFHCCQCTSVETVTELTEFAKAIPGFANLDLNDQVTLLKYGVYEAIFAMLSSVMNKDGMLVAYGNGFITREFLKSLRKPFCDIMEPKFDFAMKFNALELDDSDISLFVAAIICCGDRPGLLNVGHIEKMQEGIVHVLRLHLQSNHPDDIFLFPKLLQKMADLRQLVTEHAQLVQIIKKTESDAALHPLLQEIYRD
Source text: as §1

hPPAR δ = target: T3, hPPAR δ (Homo sapiens, UniProt Q03181); experiment: Transient transfection (transactivation) assay in CV-1 cells, hPPAR delta; format: cell-based; conditions: GAL4 chimeric receptor, SPAP reporter
T3 construct: expressed in transfected cells; host or cells: CV-1 cells
T3 sequence (Q03181 211-439 limits assumed): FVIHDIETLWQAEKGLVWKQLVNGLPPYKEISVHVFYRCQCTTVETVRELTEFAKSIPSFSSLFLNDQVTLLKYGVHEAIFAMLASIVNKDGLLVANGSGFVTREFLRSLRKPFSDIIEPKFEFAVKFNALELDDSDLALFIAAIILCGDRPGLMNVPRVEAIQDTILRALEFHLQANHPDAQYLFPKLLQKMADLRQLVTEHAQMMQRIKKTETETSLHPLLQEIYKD
Source text: as §1

Row | SMILES | EC50 (hPPAR γ) | EC50 (hPPAR α) | EC50 (hPPAR δ) | melting point
1 | Cc1cc(OC(C)c2sc(-c3ccc(C(F)(F)F)cc3F)nc2C)ccc1OC(C)(C)C(=O)O (stereo not shown) [Example 19, 2-(4-{1-[2-(2-fluoro-4-trifluoromethyl-phenyl)-4-methyl-thiazol-5-yl]-ethoxy}-2-methyl-phenoxy)-2-methyl-propionic acid] |  |  |  | 133 °C
2 | CC[C@@H](Oc1ccc(OC(C)(C)C(=O)O)c(C)c1)c1sc(-c2ccc(C(F)(F)F)cc2)nc1C [Example 29, (R)-2-methyl-2-(2-methyl-4-{1-[4-methyl-2-(4-trifluoromethyl-phenyl)thiazol-5-yl]propoxy}-phenoxy)-propionic acid] | 240 nM | 9 nM | 1.5 nM | 

More lines, in order of falling EC50 (hPPAR γ), values ahead:

Row | EC50 (hPPAR γ) | EC50 (hPPAR α) | EC50 (hPPAR δ) | melting point | SMILES
3 | 7000 nM | 16 nM | 3 nM |  | Cc1cc(O[C@@H](C)c2sc(-c3ccc(C(F)(F)F)cc3)nc2C)ccc1OC(C)(C)C(=O)O [Example 9, (S)-2-methyl-2-(2-methyl-4-{1-[4-methyl-2-(4-trifluoromethylphenyl)-thiazol-5-yl]ethoxy}-phenoxy)-propionic acid]
4 | 660 nM | 5 nM | 1.7 nM |  | CC[C@H](Oc1ccc(OC(C)(C)C(=O)O)c(C)c1)c1sc(-c2ccc(C(F)(F)F)cc2)nc1C [Example 31, (S)-2-methyl-2-(2-methyl-4-{1-[4-methyl-2-(4-trifluoromethyl-phenyl)-thiazol-5-yl]propoxy}-phenoxy)-propionic acid]
5 | 300 nM | 10 nM | 0.7 nM |  | Cc1cc(O[C@H](C)c2sc(-c3ccc(C(F)(F)F)cc3)nc2C)ccc1OC(C)(C)C(=O)O [Example 11, (R)-2-methyl-2-(2-methyl-4-{1-[4-methyl-2-(4-trifluoromethylphenyl)-thiazol-5-yl]ethoxy}-phenoxy)-propionic acid]
